Patent US20050215531A1, “Use of edg receptor binding agents in cancer” (priority 2002, published 2005)

System: HUVEC
Assay: S1P-mediated HUVEC tube formation assay
Assay type: cell-based, human
Details: branching points in 3 independent fields at 4× magnification
Experimental: For the tube formation assay, HUVEC from passage 2-8 are used and are never greater than 70% confluent before harvesting. Cells are prepared for the assay by washing with Herpes Balanced Saline Solution (HBSS from Clonetics) and then trypsinizing with Trypsin/EDTA (0.25 mg/ml, from Clonetics). After approximately 90% of the cells have lifted off the plate, an equal volume of Trypsin Neutralizing Solution (TNS from Clonetics) is added and the cells are collected into a conical tube containing at least 10 ml of EBM-2 (Clonetics)+0.1% BSA (Sigma) media Cells are centrifuged at 1000 rpm for 5 minutes and the supematant is removed and replaced with 5 ml of fresh EBM-2+0.1% BSA. Cells are counted using a hemacytometer and the volume of the cell suspension is adjusted to achieve a concentration of 500,000 cells/ml. Conical tubes are prepared with test compounds at 100 nM, and pertussin toxin (PTx) at 10 ng/ml in each, then 1 ml of the cell suspension is added to each tube. Tubes are then incubated for ½ hour at 37° C., 5% CO2. The migration assay is performed using Fluoro-Blok 24-Multiwell insert Plates coated with fibronectin (8 μm pore size, Falcon #351147) instead of the individual inserts in a 24-well plate. Cells and test compounds are prepared and pre-incubated as described above, then 100 μl is added to each approriate well in the Insert Plate. 300 μl of the EBM-2+2% charcoastripped media without S1P is added to the bottoms of the wells marked for no stimulation (−), and 300 μl of the media containing S1P (500 nM) is added to the bottoms of the wells marked for stimulation (+). The plate is then incubated for 4 hours at 37° C., 5% CO2. […]
After incubation, the plate is read on a Cytofluor II at an excitation of 485 nm and emission of 530 nm. The Fluoro-Blok coating in the inserts allows only the cells that have migrated to the bottom to be counted. […]
Tube formation is quantitated by counting the number of branching points (two independent cords connecting) in 3 independent fields at 4× magnification.

CCCCCCCCc1ccc(CCC(N)(CO)COP(=O)(O)O)cc1 (centres unmarked) [Compound A-phosphate]
Branching Points (treatment + S1P): 14 ± 7
Branching Points (treatment alone): 48 ± 15
